The values that follow come from patent US11440940B2, “Polymyxin B component or salt thereof, and preparation and application thereof” (SPH NO.1 BIOCHEMICAL & PHARMACEUTICAL CO.,LTD., priority 2020, dated 2022).

Assay [1] concerns Acinetobacter baumannii ATCC19606. The class given is cell-based. How it is done: Minimal inhibitory concentrations (MIC) of the polymyxin B1 (PMB1) and the 2′,3′-dehydropolymyxin B1 against Acinetobacter baumannii were determined using a microdilution broth method as instructed by Clinical & Laboratory Standards Institute (CLSI). Specifically, Acinetobacter baumannii ATCC19606 (standard strain) was inoculated into a 96-well plate at a density of […], to which a PMB1 solution (as control) or a 2′,3′-dehydropolymyxin B1 solution was added to a series of final concentrations of 0.125, 0.25, 0.5, 1, 2, 4 and 8 mg/L. The 96-well plate was incubated at 35±2° C. for 18-24 h, and then observed for the turbidity in each test well, where the lowest concentration of PMB1 or 2′,3′-dehydropolymyxin B1 under which the system in the test well became clear was considered as the corresponding MIC.

The subject of assay [2] is Pseudomona aeruginosa ATCC27853. The format is cell-based. How it is done:
Furthermore, the polymyxin B1 (PMB1) and the 2′,3′-dehydropolymyxin B1 were also determined for MIC against Pseudomona aeruginosa using the microdilution broth method as instructed by CLSI. Similarly, the Pseudomona aeruginosa ATCC27853 (standard strain) was inoculated into a 96-well plate at a density of 10^6 CFU/mL, to which a PMB1 solution (as control) or a 2′,3′-dehydropolymyxin B1 solution was added to a series of final concentrations of 0.125, 0.25, 0.5, 1, 2, 4 and 8 mg/L. The 96-well plate was incubated at […] for 18-24 h, and then observed for the turbidity in each test well, where the lowest concentration of PMB1 or 2′,3′-dehydropolymyxin B1 under which the system in the test well became clear was considered as the corresponding MIC.

Converted amounts (≈) assume the structure as drawn. Where two headings read alike, the source gives them in different places. Where a SMILES comes first, the peptide text is derived from it. Bridges are numbered along the chain shown (N, C = ends). [ ]: non-standard residue; d: D form. The star is where a group is joined. aThr = C[C@H](O)[C@H](N)C(=O)O; X2 = CC[C@@H](C)CC/C=C/C(=O)*; X1 = CC[C@@H](C)CCCCC(=O)*; Dab = NCC[C@H](N)C(=O)O

The MIC is the lowest concentration that inhibits growth of the organism.

Consider `CC[C@@H](C)CC/C=C/C(=O)N[C@@H](CCN)C(=O)N[C@H](C(=O)N[C@@H](CCN)C(=O)N[C@H]1CCNC(=O)[C@H]([C@H](C)O)NC(=O)[C@H](CCN)NC(=O)[C@H](CCN)NC(=O)[C@H](CC(C)C)NC(=O)[C@@H](Cc2ccccc2)NC(=O)[C@H](CCN)NC1=O)[C@H](C)O` [2′,3′-dehydropolymyxin B1] (X2-[Dab][aThr][Dab][Dab][Dab][dF]L[Dab][Dab][aThr]; lactam 4-C), for which the values for the MIC in assay [1] (ATCC19606) and in assay [2] (ATCC27853) were 0.5 mg/L (≈ 0.416 µM) and 1 mg/L (≈ 0.832 µM), respectively.
Consider `CC[C@@H](C)CCCCC(=O)N[C@@H](CCN)C(=O)N[C@H](C(=O)N[C@@H](CCN)C(=O)N[C@H]1CCNC(=O)[C@H]([C@H](C)O)NC(=O)[C@H](CCN)NC(=O)[C@H](CCN)NC(=O)[C@H](CC(C)C)NC(=O)[C@@H](Cc2ccccc2)NC(=O)[C@H](CCN)NC1=O)[C@H](C)O` [Polymyxin B1, polymyxin B1] (X1-[Dab][aThr][Dab][Dab][Dab][dF]L[Dab][Dab][aThr]; lactam 4-C), for which the MIC in assay [1] (Acinetobacter baumannii ATCC19606 (standard strain), 96-well plate, 35±2° C., 18-24 h, turbidity) is reported as 1 mg/L (≈ 0.831 µM); in assay [2] (Pseudomona aeruginosa ATCC27853 (standard strain), 96-well plate, 18-24 h, turbidity) it was 1 mg/L (≈ 0.831 µM).
